Test results from patent US4210660A, “Benzamide derivatives” (Yamanouchi Pharmaceutical Co., Ltd., priority 1978, dated 1980).
Where two headings read alike, the source gives them in different places.

Tested on: apomorphine-induced stereotyped behavior
Test: Activity in reducing apomorphine-induced stereotyped behavior (method of Janssen et al.)
Type: in vivo, rats (male, Wistar)
Conditions: sc
Description: In the following Experiment I, the compounds of this invention were compared with chlorpromazine which is a typical antipsychotic and other known structurally similar compounds in their activity in reducing apomorphine-induced stereotyped behavior.

[1] = test sample subcutaneous to rat, after 30 minutes 1.25 mg/kg apomorphine intravenously, observed 5, 10 and 20 minutes later, read-out: ED50

| SMILES | ED50 (Rattus norvegicus) [mg/kg] | ED50 [1] [mg/kg] |
| --- | --- | --- |
| CN(C)CCCN1c2ccccc2Sc2ccc(Cl)cc21 [Chlorpromazine] | 2.5 |  |
| CNc1cc(OC)c(C(=O)NC2CCN(Cc3ccccc3)C2C)cc1Cl (stereo not shown) [Example 3, N-(1-benzyl-2-methylpyrrolidin-3-yl)-5-chloro-2-methoxy-4-methylaminobenzamide] |  | 0.01 |
| CCN1CCCC1CNC(=O)c1cc(S(N)(=O)=O)ccc1OC (stereo not shown) [Sulpiride] |  | > 100 |
| CCN1CCCC1CNC(=O)c1cc(S(=O)(=O)CC)ccc1OC (stereo not shown) [Sultopiride] |  | 18 |
